Reference: PMC13327620, “A Deep‐Red‐Absorbing Osmium(II) Complex as a Photosensitizer for Photodynamic Therapy Inducing Immunogenic Cell Death” (Angewandte Chemie (International Ed. in English), 2026)

Columns and labels:
[1] = test system: immune cells in the spleens; test: Flow cytometry analysis of immune cells in spleens after vaccination; assay type: in vivo, BALB/c mice; conditions: spleen, 7 days after vaccination
Text: Encouraged by the excellent performance of Os2 in inducing ICD both in vitro and in vivo, we decided to further evaluate the antitumor immune response following vaccination. A key feature of ICD is its ability to initiate antigen‐specific adaptive immune responses. To assess this, we measured the immune cell response in the spleens and the cytokine levels in the serum of mice 7 days after vaccination (Figures 6A and S28).
The BALB/c female mice were randomly divided into 4 groups which were named as Control group, Cisplatin group, Ce6 group and Os2 group. CT26-luc cells were tre ated in vitro with 600 µM Cisplatin in the dark, 6.5 µ M Ce6 or 1.8 µM Os2 upon 740 nm LED light irradiation (60 min, 12.6 J cm-2) following the methods described above. […]
The BALB/c female mice were randomly divided into 4 groups with each group containing 3 mice, which were named as Control group, Cisplatin group, Ce6 group and Os2 group. […] For surfac e marker analysis, the cells were stained with fluorescence- l abeled anti-C D45-AF532 (Thermo Fisher Scientific Inc., Catalog no. 58- 0451- 80, clone 30-F 11 ), anti-CD3- […]
Serum samples were obt ained from the mice on day 7 after treatment. Cytokine was detected using ELISA kits according to the manufacturer ’s instructions: IFN-γ (Biolegend, Catalog no. 430807) and IL -17A ( Bi olegend, Catalog no.432507). […]

HMGB‐1 = test: Immunofluorescence staining of HMGB-1 (release) in MCA205 cells; assay type: cell-based, mouse; conditions: MCA205, PS at IC50, illumination at 740 nm
Experimental: We then used the corresponding IC50 values of each PS to evaluate their in vitro ICD induction on MCA205 cells. […] As a result, we chose Ce6 as the positive control for our subsequent in vivo tests on MCA205 cells.
Scientific, Catalog no.15 5411) at a d ensity of 8,00 0 cells p er well and cultu red fo r 24 h at 37 °C with 5 % CO2. T he cells wer e then treated with a solution of the compounds at a concentration corresponding to the IC50 for 4 h. After refreshing the medium, cells were subjected to irradiation and incubated for an additional 12 h. Subsequently, the cells were fix ed with 4% paraformaldehyde and immunostained with Anti- Calreticulin antibody (Abcam, Catalog no. ab2907) diluted 1/1000 at 4 °C overnight. Cells were then washed three times with PBS, treated with Goat Anti- Rabbit IgG H&L (Alexa […]
temperature in the dark, washed in PBS and treat ed with 10 µg/mL Hoechst for 15 min.
After a final wash, cells were analyzed by confocal microscopy as det ailed above.
Immunofluorescence st aining of HMGB-1
CT26 or MCA205 cells were seeded in Lab -Te k ® Chambered Coverglass System (Thermo Fisher Scientific, Catalog no.155411) at a density of 8,000 cells per well and cultured for 24 h at 37 °C with 5% CO2. The cells were then treated with a solution of the compounds at a concentration corresponding to the IC50 for 4 h. […]

C=Cc1c(C)c2cc3nc(c(CC(=O)O)c4[nH]c(cc5nc(cc1[nH]2)C(C)=C5CC)c(C)c4C(=O)O)[C@@H](CCC(=O)O)[C@@H]3C [Ce6, chlorin e6]
Activated CD8^+ T cells, times that of Control and Cisplatin groups [1]: around twice higher
Cytotoxic CD8^+ T cells, times higher than Control and Cisplatin groups [1]: more than 10
HMGB‐1 release (HMGB‐1): significantly promoted
